Holding throughout (format): functional
For assay [1], the system named is Candida albicans. Briefly: Antifungal activity against Candida albicans ATCC MYA-1003 after 48 hrs by CLSI M27-A3 method. The note with it: ATCC MYA-1003, 48 h.
In assay [2] the test system is Pichia kudriavzevii. Briefly: Antifungal activity against Candida krusei ATCC 6258 after 48 hrs by CLSI M27-A3 method. The settings on record: ATCC 6258, 48 h.
In assay [3] the test system is Aspergillus terreus. Briefly: Antifungal activity against Aspergillus terreus ATCC MYA3633 after 48 hrs by CLSI M38-A2 method. The note with it: ATCC MYA3633, 48 h.
The subject of assay [4] is Candida albicans. Briefly: Antifungal activity against Candida albicans ATCC 64124 after 48 hrs by CLSI M27-A3 method. The settings on record: ATCC 64124, 48 h.
For assay [5], the system named is Candida albicans. Briefly: Antifungal activity against Candida albicans ATCC MYA-2876 after 48 hrs by CLSI M27-A3 method. The settings on record: ATCC MYA-2876, 48 h.
Assay [6] concerns Aspergillus nidulans. Briefly: Antifungal activity against Aspergillus nidulans ATCC 38163 after 48 hrs by CLSI M38-A2 method. The note with it: ATCC 38163, 48 h.
Assay [7] relates to Candida albicans. Briefly: Antifungal activity against Candida albicans ATCC MYA-90819 after 48 hrs by CLSI M27-A3 method. The note with it: ATCC MYA-90819, 48 h.
Assay [8] concerns Candida albicans. Briefly: Antifungal activity against Candida albicans ATCC MYA-1237 after 48 hrs by CLSI M27-A3 method. The note with it: ATCC MYA-1237, 48 h.
Assay [9] concerns Candida parapsilosis. Briefly: Antifungal activity against Candida parapsilosis ATCC 22019 after 48 hrs by CLSI M27-A3 method. The note with it: Lodderomyces parapsilosis, ATCC 22019, 48 h.
In assay [10] the test system is Candida albicans. Briefly: Antifungal activity against Candida albicans ATCC MYA-2310 after 48 hrs by CLSI M27-A3 method. The note with it: ATCC MYA-2310, 48 h.
The test system of assay [11] is Nakaseomyces glabratus. Briefly: Antifungal activity against Candida glabrata ATCC 2001 after 48 hrs by CLSI M27-A3 method. The settings on record: CBS 138, 48 h.
For assay [12], the system named is Candida albicans. Briefly: Antifungal activity against Candida albicans ATCC 10231 after 48 hrs by CLSI M27-A3 method. The settings on record: ATCC 10231, 48 h.
The test system of assay [13] is Aspergillus flavus. Briefly: Antifungal activity against Aspergillus flavus ATCC MYA-3631 after 48 hrs by CLSI M38-A2 method. The note with it: ATCC MYA-3631, 48 h.

Each structure is given as a SMILES string. Values after ≈ are worked out from the molar mass of the structure shown.

`C[C@@H](c1ncncc1F)[C@](O)(Cn1cncn1)c1ccc(F)cc1F` [VORICONAZOLE]: the MIC (in general, the lowest concentration found to suppress growth) came to 1.95 µg/mL (≈ 5.58 µM) in assay [1]; 0.12 µg/mL (≈ 0.344 µM) in assay [2]; 0.12 µg/mL (≈ 0.344 µM) in assay [3]; 3.9 µg/mL (≈ 11.2 µM) in assay [4]; 1.95 µg/mL (≈ 5.58 µM) in assay [5]; 0.03 µg/mL (≈ 0.0859 µM) in assay [6]. For the same compound, the MIC in [7] is 1.95 µg/mL (≈ 5.58 µM); in [8] it was 7.8 µg/mL (≈ 22.3 µM); in assay [9] it was < 0.03 µg/mL; in assay [10], 0.975 µg/mL (≈ 2.79 µM).

Take `CCCN1CCN(c2ccc3nc(-c4ccc5nc(-c6ccc(O)cc6)[nH]c5c4)[nH]c3c2)CC1`: the minimum inhibitory concentration (MIC) in assay [11] came to 7.8 µg/mL (≈ 17.2 µM); in [1] it was 31.2 µg/mL (≈ 68.9 µM); in [2], 31.2 µg/mL (≈ 68.9 µM); in [3] it was 15.6 µg/mL (≈ 34.5 µM); in assay [12], 31.2 µg/mL (≈ 68.9 µM); in assay [4], 31.2 µg/mL (≈ 68.9 µM). The MIC in assay [5] is 31.2 µg/mL (≈ 68.9 µM); in [6], 7.8 µg/mL (≈ 17.2 µM); in [7] it was 31.2 µg/mL (≈ 68.9 µM); in [13] it was > 31.2 µg/mL; in [8], 31.2 µg/mL (≈ 68.9 µM); in assay [9], 7.8 µg/mL (≈ 17.2 µM). Also, inhibition of growth in assay [10] (MIC) required 31.2 µg/mL (≈ 68.9 µM).

Turning to `CC[C@@H]([C@H](C)O)n1ncn(-c2ccc(N3CCN(c4ccc(OC[C@@H]5CO[C@@](Cn6cncn6)(c6ccc(F)cc6F)C5)cc4)CC3)cc2)c1=O` [POSACONAZOLE], the MIC in assay [11] is 0.12 µg/mL (≈ 0.171 µM); in [1] it was 15.6 µg/mL (≈ 22.3 µM); in assay [2] it was 0.06 µg/mL (≈ 0.0856 µM); in assay [3], 0.48 µg/mL (≈ 0.685 µM); in assay [12] it was 0.5 µg/mL (≈ 0.713 µM); in assay [4], > 62.5 µg/mL. The minimum inhibitory concentration (MIC) in assay [5] is 7.8 µg/mL (≈ 11.1 µM); in assay [6], 0.195 µg/mL (≈ 0.278 µM); in [7] it was 31.2 µg/mL (≈ 44.5 µM); in assay [13], 0.24 µg/mL (≈ 0.342 µM); in assay [8], 15.6 µg/mL (≈ 22.3 µM); in [9], < 0.03 µg/mL. The same compound returned a minimum inhibitory concentration (MIC) in assay [10] of 31.2 µg/mL (≈ 44.5 µM).

For `CCOc1ccc(-c2nc3ccc(-c4nc5ccc(N6CCN(CC)CC6)cc5[nH]4)cc3[nH]2)cc1`, the MIC was 31.2 µg/mL (≈ 66.9 µM) in assay [11]; > 31.2 µg/mL in assay [1]; 15.6 µg/mL (≈ 33.4 µM) in assay [2]; 15.6 µg/mL (≈ 33.4 µM) in assay [3]; 15.6 µg/mL (≈ 33.4 µM) in assay [12]; 15.6 µg/mL (≈ 33.4 µM) in assay [4]. Also, the MIC was 15.6 µg/mL (≈ 33.4 µM) in [5]; 15.6 µg/mL (≈ 33.4 µM) in [6]; 15.6 µg/mL (≈ 33.4 µM) in assay [7]; > 31.2 µg/mL in assay [13]; 15.6 µg/mL (≈ 33.4 µM) in assay [8]; 3.9 µg/mL (≈ 8.36 µM) in assay [9]. Besides, the minimum inhibitory concentration (MIC) in assay [10] is 15.6 µg/mL (≈ 33.4 µM).

As for `C#CCOc1ccc(-c2nc3ccc(-c4nc5ccc(-c6nc7ccc(N8CCN(C)CC8)cc7[nH]6)cc5[nH]4)cc3[nH]2)cc1`, the minimal inhibitory concentration (MIC) in [11] is 31.2 µg/mL (≈ 53.9 µM); in assay [1] it was > 31.2 µg/mL; in assay [2] it was > 31.2 µg/mL; in assay [3] it was 31.2 µg/mL (≈ 53.9 µM); in assay [12], > 31.2 µg/mL; in assay [4] it was > 31.2 µg/mL. The minimal inhibitory concentration (MIC) in assay [5] was > 31.2 µg/mL; in assay [6], 31.2 µg/mL (≈ 53.9 µM); in [7] it was > 31.2 µg/mL; in [13] it was > 31.2 µg/mL; in assay [8] it was > 31.2 µg/mL; in [9] it was > 31.2 µg/mL. In assay [10], the MIC is > 31.2 µg/mL.

Take `CN1CCN(c2ccc3nc(-c4ccc5nc(-c6ccc(OCCOCCO)cc6)[nH]c5c4)[nH]c3c2)CC1`: the minimal inhibitory concentration (MIC) was > 31.2 µg/mL in [11]; > 31.2 µg/mL in assay [1]; 7.8 µg/mL (≈ 15.2 µM) in assay [2]; > 31.2 µg/mL in [3]; > 31.2 µg/mL in assay [12]; > 31.2 µg/mL in assay [4]. The MIC in assay [5] was > 31.2 µg/mL; in [6], > 31.2 µg/mL; in assay [7], > 31.2 µg/mL; in assay [13] it was > 31.2 µg/mL; in [8], > 31.2 µg/mL; in assay [9], 31.2 µg/mL (≈ 60.9 µM). Moreover, the MIC in [10] is > 31.2 µg/mL.

Consider `CCCN1CCN(c2ccc3nc(-c4ccc5nc(-c6ccc(OC)cc6)[nH]c5c4)[nH]c3c2)CC1`, for which the MIC in [11] was > 31.2 µg/mL; in assay [1] it was > 31.2 µg/mL; in [2], 7.8 µg/mL (≈ 16.7 µM); in assay [3], > 31.2 µg/mL; in assay [12], > 31.2 µg/mL; in assay [4] it was > 31.2 µg/mL. Besides, the MIC is > 31.2 µg/mL in assay [5]; > 31.2 µg/mL in [6]; > 31.2 µg/mL in assay [7]; > 31.2 µg/mL in assay [13]; > 31.2 µg/mL in assay [8]; 31.2 µg/mL (≈ 66.9 µM) in [9]. In addition, the MIC in assay [10] is > 31.2 µg/mL.

Turning to `C#CCOc1ccc(-c2nc3ccc(N4CCN(C)CC4)cc3[nH]2)cc1`, the MIC in assay [11], in assay [1], in assay [2], in assay [3], in [12] and in assay [4] was > 31.2 µg/mL throughout. Moreover, the minimal inhibitory concentration (MIC) in [5], in assay [6], in assay [7], in [13], in assay [8] and in assay [9] was > 31.2 µg/mL in each case. Also, the MIC in [10] was > 31.2 µg/mL.

For `OC(Cn1cncn1)(Cn1cncn1)c1ccc(F)cc1F` [FLUCONAZOLE], the MIC is > 31.2 µg/mL in assay [11]; > 125 µg/mL in [4]; 15.6 µg/mL (≈ 50.9 µM) in assay [5]; > 125 µg/mL in [7]; 1.95 µg/mL (≈ 6.37 µM) in assay [9]; > 125 µg/mL in [10].

On to `CCN1CCN(c2ccc3nc(-c4ccc5nc(-c6ccc(OC)cc6)[nH]c5c4)[nH]c3c2)CC1`, for which the minimum inhibitory concentration (MIC) was 7.8 µg/mL (≈ 17.2 µM) in [11]; > 31.2 µg/mL in assay [1]; 31.2 µg/mL (≈ 68.9 µM) in assay [2]; > 31.2 µg/mL in assay [3]; > 31.2 µg/mL in [12]; > 31.2 µg/mL in assay [4]. Also, the MIC in assay [5] is > 31.2 µg/mL; in [6], > 31.2 µg/mL; in assay [7], > 31.2 µg/mL; in assay [13], > 31.2 µg/mL; in assay [8] it was > 31.2 µg/mL; in assay [9] it was 7.8 µg/mL (≈ 17.2 µM). In addition, in assay [10], the MIC was > 31.2 µg/mL.

For `CN1CCN(c2ccc3nc(-c4ccc5nc(-c6ccc(OCCO)cc6)[nH]c5c4)[nH]c3c2)CC1`, the MIC was 31.2 µg/mL (≈ 66.6 µM) in assay [11]; 31.2 µg/mL (≈ 66.6 µM) in [1]; 7.8 µg/mL (≈ 16.6 µM) in assay [2]; 15.6 µg/mL (≈ 33.3 µM) in [3]; > 31.2 µg/mL in assay [12]; > 31.2 µg/mL in [4]. The MIC in assay [5] was 31.2 µg/mL (≈ 66.6 µM); in assay [6] it was 15.6 µg/mL (≈ 33.3 µM); in [7], > 31.2 µg/mL; in [13], 31.2 µg/mL (≈ 66.6 µM); in [8], > 31.2 µg/mL; in [9], 15.6 µg/mL (≈ 33.3 µM). This compound registered an MIC in [10] of 31.2 µg/mL (≈ 66.6 µM).

For the compound `CCC(C)n1ncn(-c2ccc(N3CCN(c4ccc(OCC5COC(Cn6cncn6)(c6ccc(Cl)cc6Cl)O5)cc4)CC3)cc2)c1=O` (stereo not drawn) [ITRACONAZOLE], the MIC in assay [1] is 31.2 µg/mL (≈ 44.2 µM); in assay [2] it was 0.48 µg/mL (≈ 0.68 µM); in [3] it was 0.975 µg/mL (≈ 1.38 µM); in assay [12] it was 0.5 µg/mL (≈ 0.709 µM); in [4], > 62.5 µg/mL; in assay [5] it was 7.8 µg/mL (≈ 11.1 µM). The MIC turned out to be 0.195 µg/mL (≈ 0.276 µM) in [6]; 31.2 µg/mL (≈ 44.2 µM) in assay [7]; 0.48 µg/mL (≈ 0.68 µM) in assay [13]; 31.2 µg/mL (≈ 44.2 µM) in [8]; 0.12 µg/mL (≈ 0.17 µM) in assay [9]; 31.2 µg/mL (≈ 44.2 µM) in [10].

As for `CCCCCN1CCN(c2ccc3nc(-c4ccc5nc(-c6ccc(OC)cc6)[nH]c5c4)[nH]c3c2)CC1`, the MIC in assay [11], in [1], in [2], in [3], in assay [12] and in assay [4] was > 31.2 µg/mL each time. The MIC is > 31.2 µg/mL in [5]; > 31.2 µg/mL in assay [6]; > 31.2 µg/mL in assay [7]; > 31.2 µg/mL in assay [13]; > 31.2 µg/mL in assay [8]; 15.6 µg/mL (≈ 31.5 µM) in assay [9]. The MIC in [10] is > 31.2 µg/mL.
